# Assay results taken from US12263171B2, “7-, 8-, and 10-substituted amino triazolo quinazoline derivatives as adenosine receptor antagonists, pharmaceutical compositions and their use” (Merck Sharp & Dohme LLC, priority 2018, dated 2025).
# Columns and labels:
# [1] = molecular target: human A2b adenosine receptor (Homo sapiens (Human), UniProt P29275); test: A2B antagonism in cAMP cell-based assay (LANCE cAMP, HEK293 cells, 600 nM adenosine); details: for IC50: values marked *: cAMP cell-based assay; for *A2B cAMP % inh. @ 10000 nM: marked *
# Chain of human A2b adenosine receptor (P29275 whole entry): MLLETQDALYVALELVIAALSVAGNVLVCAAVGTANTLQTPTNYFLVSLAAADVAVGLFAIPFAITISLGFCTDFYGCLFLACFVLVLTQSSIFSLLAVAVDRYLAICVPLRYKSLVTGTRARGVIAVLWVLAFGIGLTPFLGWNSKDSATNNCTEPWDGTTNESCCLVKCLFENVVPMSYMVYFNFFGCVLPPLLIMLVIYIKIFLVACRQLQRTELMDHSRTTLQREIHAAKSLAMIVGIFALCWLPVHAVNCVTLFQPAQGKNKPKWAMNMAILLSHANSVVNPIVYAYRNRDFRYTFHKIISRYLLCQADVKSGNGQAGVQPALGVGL
# [2] = molecular target: human A2a adenosine receptor (Homo sapiens (Human), UniProt P29274); test: A2a receptor affinity radioligand binding assay ([3H] SCH58261, membranes from HEK293 or CHO cells); details: unstarred values: radioligand binding
# Chain of human A2a adenosine receptor (P29274 whole entry): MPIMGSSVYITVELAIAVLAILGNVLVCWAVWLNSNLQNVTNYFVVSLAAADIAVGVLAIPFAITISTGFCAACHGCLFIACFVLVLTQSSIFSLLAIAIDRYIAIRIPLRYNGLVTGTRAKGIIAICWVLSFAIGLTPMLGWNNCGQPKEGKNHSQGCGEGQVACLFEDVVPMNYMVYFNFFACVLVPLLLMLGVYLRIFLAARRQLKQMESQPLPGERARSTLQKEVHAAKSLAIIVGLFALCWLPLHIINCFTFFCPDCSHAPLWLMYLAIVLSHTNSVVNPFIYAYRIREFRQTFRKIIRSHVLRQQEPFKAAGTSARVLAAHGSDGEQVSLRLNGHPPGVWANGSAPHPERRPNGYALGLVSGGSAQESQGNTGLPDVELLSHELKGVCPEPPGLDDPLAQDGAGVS
# Procedure, shortened: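 Displacement of tritiated SCH58261 (working dilution 4 nM) from recombinant human A2a receptor membranes (HEK293 or CHO), 60 min at room temperature in Tris pH 7.4/MgCl2 buffer after 15–30 min compound preincubation. Scintillation counting after filtration; normalized percent effect fitted 4-parameter logistic for IC50.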
SMILES,IC50 [1],IC50 [2],*A2B cAMP % inh. @ 10000 nM [1]
"COc1cccc2c1nc(N)n1nc([C@@H]3CCCN(c4cccc(C(F)(F)F)c4)C3)nc21 [Example 114, (R)-7-methoxy-2-(1-(3-(trifluoromethyl)phenyl)piperidin-3-yl)-[1,2,4]triazolo[1,5-c]quinazolin-5-amine]",370 nM,1.7 nM,
COc1cccc2c1nc(N)n1nc([C@@H]3CCCN(c4ccccn4)C3)nc21 [Example 119],18.1 nM,1.2 nM,
"COc1cccc2c1nc(N)n1nc([C@@H]3CCCN(c4cnn(CC(C)(C)N)c4)C3)nc21 [Example 120, (R)-2-(1-(1-(2-amino-2-methylpropyl)-1H-pyrazol-4-yl)piperidin-3-yl)-7-methoxy-[1,2,4]triazolo[1,5-c]quinazolin-5-amine]",321 nM,3.1 nM,
"COc1cccc2c1nc(N)n1nc([C@@H]3CCCN(c4cnn(CS(C)(=O)=O)c4)C3)nc21 [Example 123, (R)-7-methoxy-2-(1-(1-((methylsulfonyl)methyl)-1H-pyrazol-4-yl)piperidin-3-yl)-[1,2,4]triazolo[1,5-c]quinazolin-5-amine]",13.1 nM,0.8 nM,
"Nc1nc2c(OC(F)F)cccc2c2nc([C@@H]3CCCN(c4cnn(C5CC5)c4)C3)nn12 [Example 125, (R)-2-(1-(1-cyclopropyl-1H-pyrazol-4-yl)piperidin-3-yl)-7-(difluoromethoxy)-[1,2,4]triazolo[1,5-c]quinazolin-5-amine]",1280 nM,7.7 nM,
"Cn1cc(N2CCC[C@@H](c3nc4c5cccc(OC(F)F)c5nc(N)n4n3)C2)cn1 [Example 126, (R)-7-(difluoromethoxy)-2-(1-(1-methyl-1H-pyrazol-4-yl)piperidin-3-yl)-[1,2,4]triazolo[1,5-c]quinazolin-5-amine]",2510 nM,13.2 nM,
"COc1cccc2c1nc(N)n1nc(C34CC(C3)N(c3cnn(C)c3)C4)nc21 [Example 127, 7-methoxy-2-(2-(1-methyl-1H-pyrazol-4-yl)-2-azabicyclo[2.1.1]hexan-4-yl)-[1,2,4]triazolo[1,5-e]quinazolin-5-amine]",1650 nM,56.8 nM,
COc1cccc2c1nc(N)n1nc(C3CCCN(c4cnn(C5CC5)c4)C3C)nc21 (stereo not drawn) [Example 129],,5280 nM,30% inh. @ 10000 nM*
"COc1cccc2c1nc(N)n1nc([C@@H]3CCC[C@@H](c4cnn(C)c4)C3)nc21 [Example 136B, 7-methoxy-2-((1R,3R)-3-(1-methyl-1H-pyrazol-4-yl)cyclohexyl)-[1,2,4]triazolo[1,5-c]quinazolin-5-amine]",404 nM,10.8 nM,
CCn1cc(N2C[C@H](c3nc4c5cccc(OC)c5nc(N)n4n3)CC[C@@H]2C)cn1 [Example 140D],3010 nM,5 nM,
COc1cccc2c1nc(N)n1nc([C@H]3CC[C@H](C)N(c4cnn(CC5(O)CCC5)c4)C3)nc21 [Example 144B],333 nM,3.1 nM,
"COc1cccc2c1nc(N)n1nc([C@@H]3CC[C@H](C)N(c4cnn(C(C)C(C)(C)O)c4)C3)nc21 (stereo partly drawn) [Example 147D, 3-(4-((2S,5R)-5-(5-amino-7-methoxy-[1,2,4]triazolo[1,5-c]quinazolin-2-yl)-2-methylpiperidin-1-yl)-1H-pyrazol-1-yl)-2-methylbutan-2-ol]",5.6 nM,0.2 nM,
COc1cccc2c1nc(N)n1nc([C@H]3C[C@@H](F)CN(c4cnn(C5CC5)c4)C3)nc21 [Example 148A],234 nM,1 nM,
COc1cccc2c1nc(N)n1nc([C@@H]3C[C@@H](F)CN(c4cnn(C5CC5)c4)C3)nc21 [Example 148B],,27.8 nM,36% inh. @ 10000 nM*
CCn1cc(N2C[C@H](c3nc4c5cccc(OC)c5nc(N)n4n3)CC(F)(F)C2)cn1 [Example 153B],677 nM,1 nM,
"CCn1cc(N2CC[C@@H](c3nc4c5cccc(OC)c5nc(N)n4n3)C2)cn1 [Example 160, (R)-2-(1-(1-ethyl-1H-pyrazol-4-yl)pyrrolidin-3-yl)-7-methoxy-[1,2,4]triazolo[1,5-c]quinazolin-5-amine]",395 nM,19 nM,
"COc1cccc2c1nc(N)n1nc([C@@H]3CCN(c4cnn(C5CC5)c4)C3)nc21 [Example 161, (R)-2-(1-(1-cyclopropyl-1H-pyrazol-4-yl)pyrrolidin-3-yl)-7-methoxy-[1,2,4]triazolo[1,5-c]quinazolin-5-amine]",231 nM,13.2 nM,

SMILES,IC50 [1],IC50 [2],*A2B cAMP % inh. @ 10000 nM [1]
"COc1cccc2c1nc(N)n1nc([C@@H]3CCN(c4cnn(C(C)(C)C)c4)C3)nc21 [Example 163, (R)-2-(1-(1-(tert-butyl)-1H-pyrazol-4-yl)pyrrolidin-3-yl)-7-methoxy-[1,2,4]triazolo[1,5-c]quinazolin-5-amine]",42.1 nM,14 nM,
"COc1cccc2c1nc(N)n1nc([C@@H]3CCN(c4cnn(CC(F)(F)F)c4)C3)nc21 [Example 164, (R)-7-methoxy-2-(1-(1-(2,2,2-trifluoroethyl)-1H-pyrazol-4-yl)pyrrolidin-3-yl)-[1,2,4]triazolo[1,5-c]quinazolin-5-amine]",29.5 nM,8.9 nM,
"COc1ccc2c(c1)nc(N)n1nc([C@@H]3CCCN(c4cnn(C)c4)C3)nc21 [Example 177, (R)-8-methoxy-2-(1-(1-methyl-1H-pyrazol-4-yl)piperidin-3-yl)-[1,2,4]triazolo[1,5-c]quinazolin-5-amine]",132 nM,4.7 nM,
"COc1ccc2c(c1)nc(N)n1nc([C@@H]3CCCN(c4cnn(C5CC5)c4)C3)nc21 [Example 184, (R)-2-(1-(1-cyclopropyl-1H-pyrazol-4-yl)piperidin-3-yl)-8-methoxy-[1,2,4]triazolo[1,5-c]quinazolin-5-amine]",141 nM,4 nM,
"COc1ccc2c(c1)nc(N)n1nc([C@@H]3CC[C@H](C)N(c4cn(CC(C)(C)O)nc4C)C3)nc21 [Example 213, 1-(4-((2S,5R)-5-(5-amino-8-methoxy-[1,2,4]triazolo[1,5-c]quinazolin-2-yl)-2-methylpiperidin-1-yl)-3-methyl-1H-pyrazol-1-yl)-2-methylpropan-2-ol]",27.6 nM,0.4 nM,
"COc1ccc2c(c1)nc(N)n1nc([C@@H]3CC[C@H](C)N(c4cnn(C(C)(C)CO)c4)C3)nc21 [Example 214, 2-(4-((2S,5R)-5-(5-amino-8-methoxy-[1,2,4]triazolo[1,5-c]quinazolin-2-yl)-2-methylpiperidin-1-yl)-1H-pyrazol-1-yl)-2-methylpropan-1-ol]",2.8 nM,0.2 nM,
CC[C@@H]1CC[C@@H](c2nc3c4ccc(OC)cc4nc(N)n3n2)CN1c1cnn(C(C)(C)CO)c1 [Example 215B],6.3 nM,0.5 nM,
CC[C@H]1CC[C@H](c2nc3c4ccc(OC)cc4nc(N)n3n2)CN1c1cnn(C(C)(C)CO)c1 [Example 215C],1330 nM,8.7 nM,
CC[C@H]1CC[C@@H](c2nc3c4ccc(OC)cc4nc(N)n3n2)CN1c1cnn(C(C)(C)CO)c1 [Example 215D],721 nM,20.7 nM,
"CC[C@@H]1CC[C@@H](c2nc3c4cccc(OC)c4nc(N)n3n2)CN1c1cnn(CC(C)(C)O)c1 [Example 216A, 1-(4-((2R,5R)-5-(5-amino-7-methoxy-[1,2,4]triazolo[1,5-c]quinazolin-2-yl)-2-ethylpiperidin-1-yl)-1H-pyrazol-1-yl)-2-methylpropan-2-ol]",651 nM,33.9 nM,
"CC[C@H]1CC[C@H](c2nc3c4cccc(OC)c4nc(N)n3n2)CN1c1cnn(CC(C)(C)O)c1 [Example 216B, 1-(4-((2S,5S)-5-(5-amino-7-methoxy-[1,2,4]triazolo[1,5-c]quinazolin-2-yl)-2-ethylpiperidin-1-yl)-1H-pyrazol-1-yl)-2-methylpropan-2-ol]",6.6 nM,0.4 nM,
"CC[C@H]1CC[C@@H](c2nc3c4cccc(OC)c4nc(N)n3n2)CN1c1cnn(CC(C)(C)O)c1 [Example 216C, 1-(4-((2S,5R)-5-(5-amino-7-methoxy-[1,2,4]triazolo[1,5-c]quinazolin-2-yl)-2-ethylpiperidin-1-yl)-1H-pyrazol-1-yl)-2-methylpropan-2-ol]",292 nM,23.5 nM,
"COc1ccc2c(c1)nc(N)n1nc([C@H]3C[C@@H](C)CN(c4cn([C@@H](C)[C@H](C)O)nc4C)C3)nc21 [Example 219A, (2S,3S)-3-(4-((3S,5R)-3-(5-amino-8-methoxy-[1,2,4]triazolo[1,5-c]quinazolin-2-yl)-5-methylpiperidin-1-yl)-3-methyl-1H-pyrazol-1-yl)butan-2-ol]",1970 nM,0.5 nM,
"COc1ccc2c(c1)nc(N)n1nc([C@@H]3C[C@H](C)CN(c4cn([C@H](C)[C@@H](C)O)nc4C)C3)nc21 [Example 219B, (2R,3R)-3-(4-((3R,5S)-3-(5-amino-8-methoxy-[1,2,4]triazolo[1,5-c]quinazolin-2-yl)-5-methylpiperidin-1-yl)-3-methyl-1H-pyrazol-1-yl)butan-2-ol]",999 nM,0.2 nM,
"COc1ccc2c(c1)nc(N)n1nc([C@@H]3CCCN(c4cnn([C@@H](C)[C@H](C)O)c4)C3)nc21 [Example 220A, (2S,3S)-3-(4-((R)-3-(5-amino-8-methoxy-[1,2,4]triazolo[1,5-c]quinazolin-2-yl)piperidin-1-yl)-1H-pyrazol-1-yl)butan-2-ol]",66.2 nM,1.03 nM,
"COc1ccc2c(c1)nc(N)n1nc([C@@H]3CCCN(c4cnn([C@H](C)[C@@H](C)O)c4)C3)nc21 [Example 220B, (2R,3R)-3-(4-((R)-3-(5-amino-8-methoxy-[1,2,4]triazolo[1,5-c]quinazolin-2-yl)piperidin-1-yl)-1H-pyrazol-1-yl)butan-2-ol]",52.8 nM,1.39 nM,
